# Reference: patent US20230109839A1, “THERAPEUTIC AGENT FOR TAUOPATHIES” (SUMITOMO PHARMA CO., LTD., priority 2020, published 2023)
# “Also recorded” adds a separate entry of the source.
# Tests used:
# Type in all cases: in vivo, mouse
# rTg4510 mice = assay: Cerebral atrophy in rTg4510 mice, MRI volume of brain regions (Test 5); details: for lateral ventricular volume (mm^3): 4.5 mg/g-food, with ABT 1 mg/g-food
# Description: (§1) Test 5: Evaluation of Intracerebral Tau Aggregate Accumulation and Cerebral Atrophy Using rTg4510 Mice
# (§2) This test is a test to evaluate the effects of the compounds on intracerebral tau aggregate accumulation and cerebral atrophy. The rTg4510 mice overexpress the human-type FTDP-17 mutant tau in the forebrain, and month-age-dependent intracerebral tau aggregate accumulation and cerebral atrophy are observed. The rTg4510 mice used herein were produced by mating Tg (tauP301L) 4510 mice (Stock No. 015815) and CaMKII-tTA mice (Stock No. 007004) purchased from The Jackson Laboratory and breeding them.
# (§3) The test compound was administered as a mixed diet to rTg4510 mice from the age of 4 months, and PET scan and MRI were performed at the ages of 4, 6 and 8 months to quantitatively evaluate the amount of the intracerebral tau aggregate accumulated and cerebral atrophy. The PET scan was performed using MicroPET Focus 220 of Siemens Medical Solutions (0.851 mm thick (intercenter) 95 slices, 19.0 cm axial field of view (FOV), and 7.6 cm intra-section FOV). The administration of radioactive compound [^18F] PM-PBB3 (precursor obtained from Aprinoia) and the PET scan were performed in dimly lit after the mice was treated with 1.5% isoflurane anesthesia to avoid […] of the radioactive compound. The emission scan was performed for 60 minutes immediately after the intravenous administration of [^18F] PM-PBB3 (1 mCi) (3D list mode, energy window: 350-750 keV). Then, the list mode data sorted into 3D synograms were converted into 2D synograms by Fourier-rebinding (frames: 4×1, 8×2 and 8×5 minutes). The dynamic image for 60 minutes after the administration of [^18F] PM-PBB3 was reconstructed by a filter-corrected back projection with a 0.5 mm Hanning filter. Regions of interest (ROI) were set in multiple brain regions using PMOD image analysis software (PMOD Technology) with reference to the MRI templates and the PET reconstructed images. Tau aggregate accumulation was evaluated by calculating SUVR (Standardized uptake value ratio) with the cerebellum as a reference region, based on the added average of dynamic images from 40 minutes to 60 minutes.
# The evaluation of cerebral atrophy was performed with horizontal superconducting magnet type MRI (7T, inner diameter 400 mm, self-shielding type, zero boil-off type). The imaging was performed under isoflurane anesthesia while maintaining the rectal temperature at 36.5±0.5° C. After Tripilot acquisition, the brain images were acquired by TurboRARE T2 emphasis sequence (TR: 4200 ms, TE: 36 ms, Fat-Sup: on, NA: 4, RARE factor: 8, scan time: 14 min) (FOV read: 25.6 mm, FOV P1: 14.5 mm, Slice thickness: 0.5 mm, number of slices: 28). The ROI of each brain region was set in each of the acquired slices, and the volume of the brain region was calculated by summing the ROI areas of all the slices to evaluate the effect of the test compound.
# [1] = tested on: phosphorylated tau oligomer; assay: Evaluation of phosphorylated tau oligomers in brain of APP-Tg mice, Western blotting (Test 4); details: for Reducing effect of phosphorylated tau oligomer: 7-10 days, with ABT 1 mg/g-food
# Experimental: Test 4: Evaluation of Phosphorylated Tau Oligomers Using APP-Tg Mice
# This test is a test to quantify the oligomer of phosphorylated tau in the brain to evaluate the action of a compound. […] The APP-Tg mice used herein were prepared by the method described in Test 3.
# The test compound administered with food to APP-Tg mice for 7-10 days. At this time, in order to increase the blood concentration of the test compound, ABT was used in combination with a mixed diet of 1 mg/g-food depending on the compound. After the administration, the brain was collected, and the protein is extracted from the collected brain using TBS (Tris Buffered Saline) or sarcosyl, and then SDS-PAGE (sodium dodecyl sulfate-polyacrylamide gel electrophoresis) of the soluble or insoluble fraction was performed. After that, Western blotting was performed using an anti-oligomerized tau antibody (Anti-Tau, oligomeric, clone TOMA-1), and the effect of the test compound was evaluated by quantifying the band amount of the phosphorylated tau oligomer.
# The reducing effect of phosphorylated tau oligomer was calculated by the following formula, and from the calculated values, the results were defined as follows: 0-25%: +, 25-50%: ++, 50-75%: +++, and 75-100%: ++++. The significant difference from the vehicle-administered group was determined using the Student t-test. For the band amount, the value corrected by the β-actin band amount was used.
# Reducing effect of phosphorylated tau oligomer={(band amount of oligomerized tau in vehicle-administered group−band amount of oligomerized tau in test compound-administered group)/band amount of oligomerized tau in vehicle-administered group}×100
# [2] = tested on: intracerebral tau aggregate accumulation; assay: Intracerebral tau aggregate accumulation in rTg4510 mice, tau PET with [18F] PM-PBB3, SUVR (Test 5); details: for SUVR(cerebellum ratio) cerebral neocortex / SUVR(cerebellum ratio) hippocampus: 4.5 mg/g-food, with ABT 1 mg/g-food
# Description: as §1, §2, §3
# [3] = mixed diet 4.5 mg/g-food with ABT 1 mg/g-food
compound,measurement,setting,value
"N#Cc1ccc(NC(=O)Cn2nc(N3CCC4(CC4)C(F)(F)C3)ccc2=O)cn1 [Example 560, N-(6-cyanopyridin-3-yl)-2-[3-(4,4-difluoro-6-azaspiro[2.5]octan-6-yl)-6-oxopyridazin-1(6H)-yl]acetamide]",lateral ventricular volume (mm^3),rTg4510 mice; 4 month old,0.47 ± 0.06 mm^3
same,lateral ventricular volume (mm^3),rTg4510 mice; 6 month old,0.34 ± 0.10 mm^3
same,lateral ventricular volume (mm^3),rTg4510 mice; 8 month old,0.71 ± 0.35 mm^3
same,age-dependent increase in lateral ventricular volume,rTg4510 mice; [3],suppressed
same,Reducing effect of phosphorylated tau oligomer,[1]; dose 0.5 mg/g-food,++ (25-50%: ++)
same,Reducing effect of phosphorylated tau oligomer,[1]; dose 4.5 mg/g-food,++++ (75-100%: ++++)
same,reducing effect of tau oligomer,"[1]; with food for 7-10 days, ABT 1 mg/g-food depending on the compound, brain, anti-oligomerized tau antibody TOMA-1",some reducing effect of tau oligomer; also recorded: strong reducing effect of tau oligomer
same,SUVR(cerebellum ratio) cerebral neocortex,[2]; 4 month old,1.026 ± 0.037
same,SUVR(cerebellum ratio) hippocampus,[2]; 4 month old,1.103 ± 0.036
same,SUVR(cerebellum ratio) cerebral neocortex,[2]; 6 month old,1.224 ± 0.060
same,SUVR(cerebellum ratio) hippocampus,[2]; 6 month old,1.328 ± 0.078
same,SUVR(cerebellum ratio) cerebral neocortex,[2]; 8 month old,1.351 ± 0.049
same,SUVR(cerebellum ratio) hippocampus,[2]; 8 month old,1.468 ± 0.056
same,age-dependent increase in SUVR in the cerebral neocortex and hippocampus (FIG. 7),[2]; [3],tended to be suppressed
same,"increase in PET tracer accumulation in each brain region with aging (average SUVR images, FIG. 6)","[2]; mixed diet 4.5 mg/g-food with ABT 1 mg/g-food, ages 4, 6 and 8 months",suppressed
